{"source": "paper PMC11947183", "about": "(Communications Biology, 2025)", "key": {"[1]": {"test_system": "MjavOBP1", "type": "binding, Manis javanica", "settings": "for Kd: read-out: K d (competitive binding), pH 7.4"}, "[2]": {"molecular_target": "MjavOBP2", "set-up": "species or system Manis javanica", "settings": "read-out: K d (competitive binding); pH 7.4"}, "[3]": {"test_system": "MjavOBP3", "set-up": "species or system Manis javanica", "settings": "read-out: IC50 (competitive binding); pH 7.4"}}, "data": [{"compound": "CC(C)=CCCC(C)=CC=O", "note": "(mixture of isomers) [citral, Citral]", "values": [{"measurement": "binding to MjavOBP1 (in words)", "setting": "[1]", "result": "bound weakly"}]}, {"compound": "CCCCCCCCCC(C)=O", "note": "[2-undecanone, 2-Undecanone]", "values": [{"measurement": "Kd", "setting": "[2]", "result": "54.5 ± 10.8", "unit": "µM"}, {"measurement": "Kd", "setting": "[1]", "result": "56.6 ± 4.2", "unit": "µM"}]}, {"compound": "O=C(O)CCc1ccccc1", "note": "[3-phenylpropionic acid, 3-Phenylpropionic acid]", "values": [{"measurement": "binding to MjavOBP1 (in words)", "setting": "[1]", "result": "bound weakly"}]}, {"compound": "CCCCCCCCC(=O)CC", "note": "[3-undecanone, 3-Undecanone]", "values": [{"measurement": "IC50", "setting": "[3]", "result": "> 2.23", "unit": "µM"}]}, {"compound": "CCCCCC=O", "note": "[hexanal, Hexanal]", "values": [{"measurement": "IC50", "setting": "[3]", "result": "> 2.23", "unit": "µM"}]}, {"compound": "Cc1c[nH]c2ccccc12", "note": "[skatole, 3-methylindole]", "values": [{"measurement": "Kd", "setting": "[2]", "result": "40.8 ± 8.93", "unit": "µM"}]}, {"compound": "C=CC(=C)CC/C=C(\\C)CCC=C(C)C", "note": "[β-farnesene]", "values": [{"measurement": "IC50", "setting": "[3]", "result": "> 2.23", "unit": "µM"}]}, {"compound": "CCCCCCCC1CCCC(=O)O1", "note": "(stereo not drawn) [δ-dodecalactone, δ-Dodecalactone]", "values": [{"measurement": "Kd", "setting": "[1]", "result": "38.7 ± 2.04", "unit": "µM"}]}]}
